18 compounds from patent publication US9120812B2, “Pyrimidooxazocine derivatives as mTOR-inhibitors” (SANOFI, priority 2012, dated 2015) can be followed below.

Molecules are shown by their SMILES.

The target of assay [1] is mTOR (human recombinant aa mTOR 1360-2549) (Homo sapiens (Human), UniProt P42345). The assay can be described thus: mTOR enzymatic test by TR-FRET (phosphorylation of GFP-4EBP1). The class given is biochemical. On the procedure:
Model 1: mTOR Enzymatic Test by TR-FRET (Time-resolved Fluorescence Resonance Energy Transfer).
The test detects the phosphorylation of the substrate GFP-4EBP1 using a terbium-labelled antibody that is specific for the phospho-Thr46 epitope. Binding of the Tb-antibody to the phosphorylated GFP peptide allows the transfer of energy from Tb, excited at 340 nm, to GFP with an increase in the fluorescence emission of the GFP at 520 nm. […] The mixture is incubated for 30 minutes at room temperature. 10 μl of solution are taken up and the reaction is quenched by adding 10 μl of Tb-antibody solution (Invitrogen PV4757)/EDTA (2 nM Tb-Ac and 10 mM EDTA final). After 60 minutes at room temperature, the fluorescence at 490 nm, from the Tb emission, and at 520 nm, from the GFP emission, is measured in a BMG PHERAstar reader equipped with a Lanthascreen™ filter (excitation at 340 nm, emission at 490 and 520 nm). The results are given in the form of the 520/490 ratio.

A further assay has as its target PI3Kα (p110α/p85α) (Homo sapiens (Human), UniProt P42336). In words: PI3Kα enzymatic test by measuring the consumption of ATP. It counts as biochemical. The procedure: Model 2: PI3Kα Enzymatic Test by Measuring the Consumption of ATP.
The test uses a lucifeurerin/luciferase system to measure the concentration of ATP and its consumption during the enzymatic reaction. The test is performed in 96-well format (Corning/Costar 96 black flat-bottomed half-wells plate, ref. 3694) in a total volume of 30 μl.
To 1 μl of inhibitor in 100% DMSO are added (final concentrations) 50 μM of the substrate PIP2 ((L-α-phosphatidyl-D-myoinositol 4,5-bisphosphate, Echelon 117P-4516-0500), 2 μM of ATP and 1.7 μg/ml of PI3Kα, (p110α/p85α, Invitrogen PV4788) in a buffer of Tris/HCl 50 mM pH 7.5, EGTA 1 mM, MgCl2 10 mM, Chaps 0.03%, 1 mM DTT). After 90 minutes, the reaction is quenched by adding 20 μl/well of KinaseGlo reagent (Promega V6713). After 10 minutes in the dark, the luminescence is read on the PHERAStar microplate reader (reading at 0.8 sec/well).
The IC50 values are determined by the preparation of successive threefold dilutions on at least a scale of 10 000.

For another assay, the system named is U87MG tumour cells. In words: Test of in vitro proliferation of U87MG tumour cells. The class given is cell-based. As to conditions: Homo sapiens, U-87 MG, 72 h, U87MG cells, 72 hours; read-out: U87 Cell Proliferation IC50. The procedure:
Model 4: Test of in vitro Proliferation of U87MG Tumour Cells.
The cell growth is determined with the reagent CellTiter 96 AQueous One Solution Cell Proliferation Assay from Promega (Cat. No. G3581).

Sequence of mTOR (human recombinant aa mTOR 1360-2549) (P42345 1360-2549): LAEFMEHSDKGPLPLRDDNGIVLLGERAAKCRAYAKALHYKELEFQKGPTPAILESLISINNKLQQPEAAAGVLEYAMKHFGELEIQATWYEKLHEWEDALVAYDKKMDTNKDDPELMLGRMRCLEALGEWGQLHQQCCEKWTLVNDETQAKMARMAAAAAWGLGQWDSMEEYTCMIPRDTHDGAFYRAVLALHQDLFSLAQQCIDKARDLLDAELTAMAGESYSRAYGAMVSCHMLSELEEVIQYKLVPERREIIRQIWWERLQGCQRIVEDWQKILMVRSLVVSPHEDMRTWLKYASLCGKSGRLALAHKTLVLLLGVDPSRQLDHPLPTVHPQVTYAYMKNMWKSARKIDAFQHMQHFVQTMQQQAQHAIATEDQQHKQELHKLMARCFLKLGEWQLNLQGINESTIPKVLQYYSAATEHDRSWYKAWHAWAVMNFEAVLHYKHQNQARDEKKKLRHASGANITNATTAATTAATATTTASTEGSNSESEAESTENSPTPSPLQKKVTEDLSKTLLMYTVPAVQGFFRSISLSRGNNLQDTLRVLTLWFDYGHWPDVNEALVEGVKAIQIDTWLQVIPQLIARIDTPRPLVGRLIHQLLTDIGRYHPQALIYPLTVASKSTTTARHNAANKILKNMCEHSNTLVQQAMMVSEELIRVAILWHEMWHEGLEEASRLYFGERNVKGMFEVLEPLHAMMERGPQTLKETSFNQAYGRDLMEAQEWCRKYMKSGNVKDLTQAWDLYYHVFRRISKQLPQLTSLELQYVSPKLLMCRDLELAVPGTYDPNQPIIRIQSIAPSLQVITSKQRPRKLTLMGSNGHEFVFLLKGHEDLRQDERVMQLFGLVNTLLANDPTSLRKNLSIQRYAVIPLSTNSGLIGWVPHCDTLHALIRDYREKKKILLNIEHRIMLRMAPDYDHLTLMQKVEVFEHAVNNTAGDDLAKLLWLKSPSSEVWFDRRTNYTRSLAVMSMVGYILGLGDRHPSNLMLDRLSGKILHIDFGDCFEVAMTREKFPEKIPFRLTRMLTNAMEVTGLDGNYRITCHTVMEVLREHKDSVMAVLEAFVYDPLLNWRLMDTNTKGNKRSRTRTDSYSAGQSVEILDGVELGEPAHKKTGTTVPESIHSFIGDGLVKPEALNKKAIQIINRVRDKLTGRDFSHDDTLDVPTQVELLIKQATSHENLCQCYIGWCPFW
Sequence of PI3Kα (p110α/p85α) (P42336 whole entry): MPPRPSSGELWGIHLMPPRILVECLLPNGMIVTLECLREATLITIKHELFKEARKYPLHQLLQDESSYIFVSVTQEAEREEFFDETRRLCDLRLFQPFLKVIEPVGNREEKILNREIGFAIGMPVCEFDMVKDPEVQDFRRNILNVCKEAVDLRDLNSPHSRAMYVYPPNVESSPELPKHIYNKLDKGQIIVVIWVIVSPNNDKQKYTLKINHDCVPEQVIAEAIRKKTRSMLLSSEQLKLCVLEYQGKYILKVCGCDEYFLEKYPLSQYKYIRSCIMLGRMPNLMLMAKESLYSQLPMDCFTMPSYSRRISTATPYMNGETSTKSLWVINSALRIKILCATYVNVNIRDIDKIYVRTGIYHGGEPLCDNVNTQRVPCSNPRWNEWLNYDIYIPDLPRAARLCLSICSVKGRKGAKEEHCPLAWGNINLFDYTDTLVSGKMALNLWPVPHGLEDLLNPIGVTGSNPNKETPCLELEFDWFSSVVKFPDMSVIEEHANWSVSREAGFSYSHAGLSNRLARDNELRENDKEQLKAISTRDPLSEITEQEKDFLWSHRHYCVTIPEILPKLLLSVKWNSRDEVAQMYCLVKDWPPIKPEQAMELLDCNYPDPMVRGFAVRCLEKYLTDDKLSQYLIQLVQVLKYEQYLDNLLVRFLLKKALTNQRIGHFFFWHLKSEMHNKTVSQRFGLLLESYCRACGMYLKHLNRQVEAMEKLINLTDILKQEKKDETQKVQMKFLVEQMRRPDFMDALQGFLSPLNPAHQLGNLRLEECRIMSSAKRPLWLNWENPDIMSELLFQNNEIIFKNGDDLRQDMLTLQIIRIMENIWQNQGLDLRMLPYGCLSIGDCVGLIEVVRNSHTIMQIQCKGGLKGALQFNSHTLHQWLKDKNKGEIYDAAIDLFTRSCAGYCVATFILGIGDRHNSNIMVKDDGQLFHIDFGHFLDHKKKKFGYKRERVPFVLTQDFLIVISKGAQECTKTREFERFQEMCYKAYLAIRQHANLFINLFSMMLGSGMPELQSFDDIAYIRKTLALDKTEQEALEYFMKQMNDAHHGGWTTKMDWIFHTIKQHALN
Sequence of PI3Kα (p110α/p85α) (P27986 whole entry partner): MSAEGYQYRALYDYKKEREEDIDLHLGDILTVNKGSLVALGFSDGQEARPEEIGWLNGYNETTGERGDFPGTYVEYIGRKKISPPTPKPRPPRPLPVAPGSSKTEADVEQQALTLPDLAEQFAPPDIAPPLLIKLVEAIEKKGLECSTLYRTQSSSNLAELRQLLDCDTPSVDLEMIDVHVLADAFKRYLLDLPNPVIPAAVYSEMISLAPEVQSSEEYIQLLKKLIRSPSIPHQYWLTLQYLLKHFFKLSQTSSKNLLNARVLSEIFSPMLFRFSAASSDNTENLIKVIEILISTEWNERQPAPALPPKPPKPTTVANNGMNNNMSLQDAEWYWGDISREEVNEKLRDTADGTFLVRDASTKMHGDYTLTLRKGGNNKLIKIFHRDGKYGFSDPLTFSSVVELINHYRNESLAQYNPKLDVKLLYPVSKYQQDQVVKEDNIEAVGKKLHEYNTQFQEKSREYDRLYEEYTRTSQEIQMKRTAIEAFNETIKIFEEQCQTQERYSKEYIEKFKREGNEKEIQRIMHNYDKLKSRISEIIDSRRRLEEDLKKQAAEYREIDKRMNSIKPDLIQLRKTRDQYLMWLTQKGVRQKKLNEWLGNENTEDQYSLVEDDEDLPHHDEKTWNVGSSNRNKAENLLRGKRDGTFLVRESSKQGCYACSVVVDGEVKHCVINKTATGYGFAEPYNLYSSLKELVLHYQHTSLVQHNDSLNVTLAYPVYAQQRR

Regarding `COCCN1CC(C)(C)Oc2nc(N3CCOC[C@@H]3C)nc(-c3ccc(NC(=O)NCC(C)(C)O)c(F)c3)c2C1=O` [Example 226, 1-{2-Fluoro-4-[6-(2-methoxyethyl)-8,8-dimethyl-2-((S)-3-methylmorpholin-4-yl)-5-oxo-5,6,7,8-tetrahydro-9-oxa-1,3,6-triazabenzocyclohepten-4-yl]phenyl}-3-(2-hydroxy-2-methylpropyl)urea], in assay [1], the IC50 turned out to be 1.28 µM. Also, the “PI3Ka IC50” value at PI3Kα (p110α/p85α) is more than 10 µM.

On to `CCC(=O)Nc1ccc(-c2nc(N3CC4CCC(C3)O4)nc3c2C(=O)N(CC)CC(C)(C)O3)cc1` [Example 108, N-{4-[6-Ethyl-8,8-dimethyl-2-(8-oxa-3-azabicyclo[3.2.1]oct-3-yl)-5-oxo-5,6,7,8-tetrahydro-9-oxa-1,3,6-triazabenzocyclohepten-4-yl]phenyl}propionamide], for which the IC50 in assay [1] came to 0.472 µM; in the assay on U87MG tumour cells, 4.45 µM. Also, at PI3Kα (p110α/p85α), the “PI3Ka IC50” value was more than 10 µM.

Turning to `CCNC(=O)Nc1ccc(-c2nc(N3CC4CCC(C3)O4)nc3c2C(=O)N(CC)CC(C)(C)O3)cn1` [Example 17, 1-ethyl-3-{5-[6-ethyl-8,8-dimethyl-2-(8-oxa-3-azabicyclo[3.2.1]oct-3-yl)-5-oxo-5,6,7,8-tetrahydro-9-oxa-1,3,6-triazabenzocyclohepten-4-yl]pyridin-2-yl}urea], the IC50 is 2.49 µM in assay [1] and more than 10 µM with U87MG tumour cells. The “PI3Ka IC50” value on PI3Kα (p110α/p85α) is more than 10 µM.

Turning to `CCNC(=O)Nc1ccc(-c2nc(N3CC4CCC(C3)O4)nc3c2C(=O)N(CCCO)CC(C)(C)O3)cc1` [Example 9, 1-ethyl-3-{4-[6-(3-hydroxypropyl)-8,8-dimethyl-2-(8-oxa-3-azabicyclo[3.2.1]oct-3-yl)-5-oxo-5,6,7,8-tetrahydro-9-oxa-1,3,6-triazabenzocyclohepten-4-yl]phenyl}urea], the values for the IC50 (in assay [1]; in the assay with U87MG tumour cells) were 0.065 µM and 2.5 µM, respectively. Further, the “PI3Ka IC50” value at PI3Kα (p110α/p85α) was more than 10 µM.

Regarding `CCN1CC(C)(C)Oc2nc(N3CC4CCC(C3)O4)nc(-c3ccc(NS(=O)(=O)CC)cc3)c2C1=O` [Example 111, Ethanesulfonic acid {4-[6-ethyl-8,8-dimethyl-2-(8-oxa-3-azabicyclo[3.2.1]oct-3-yl)-5-oxo-5,6,7,8-tetrahydro-9-oxa-1,3,6-triazabenzocyclohepten-4-yl]phenyl}amide], the IC50 in assay [1] was found to be 6.35 µM. Further, on PI3Kα (p110α/p85α), the “PI3Ka IC50” value was more than 10 µM.

As for `CCN1CC(C)(C)Oc2nc(N3CC4CCC(C3)O4)nc(-c3ccc(N)nc3)c2C1=O` [Example 107, 4-(6-Aminopyridin-3-yl)-6-ethyl-8,8-dimethyl-2-(8-oxa-3-azabicyclo[3.2.1]oct-3-yl)-7,8-dihydro-6H-9-oxa-1,3,6-triazabenzocyclohepten-5-one], the IC50 in assay [1] is 2.65 µM; in the assay on U87MG tumour cells, more than 10 µM. The “PI3Ka IC50” value on PI3Kα (p110α/p85α) was 9.38 µM.

On to `CCNC(=O)Nc1ccc(-c2nc(N3CC4CCC(C3)O4)nc3c2C(=O)N(C[C@@H]2CCCN2C(C)=O)CC(C)(C)O3)cc1F` [Example 6, 1-{4-[6-((S)-1-acetylpyrrolidin-2-ylmethyl)-8,8-dimethyl-2-(8-oxa-3-azabicyclo[3.2.1]oct-3-yl)-5-oxo-5,6,7,8-tetrahydro-9-oxa-1,3,6-triazabenzocyclohepten-4-yl]-2-fluorophenyl}-3-ethylurea], for which the results for the IC50 (in assay [1]; in the assay on U87MG tumour cells) were 1.07 µM and 7.15 µM, respectively. Besides, on PI3Kα (p110α/p85α), the “PI3Ka IC50” value is more than 10 µM.

On to `CCNC(=O)Nc1ccc(-c2nc(N3C[C@@H](C)O[C@@H](C)C3)nc3c2C(=O)N(CC)CC(C)(C)O3)cc1` [Example 114, 1-{4-[2-((2S,6R)-2,6-Dimethylmorpholin-4-yl)-6-ethyl-8,8-dimethyl-5-oxo-5,6,7,8-tetrahydro-9-oxa-1,3,6-triazabenzocyclohepten-4-yl]phenyl}-3-ethylurea], for which the IC50 in assay [1] is 1.22 µM; in the assay with U87MG tumour cells it was more than 10 µM. Also, the “PI3Ka IC50” value at PI3Kα (p110α/p85α) was more than 10 µM.

As for `CCN1CC(C)(C)Oc2nc(N3CC4CCC(C3)O4)nc(-c3ccc(NC(=O)NC(C)(C)CO)c(F)c3)c2C1=O` [Example 224, 1-{4-[6-Ethyl-8,8-dimethyl-2-(8-oxa-3-azabicyclo[3.2.1]oct-3-yl)-5-oxo-5,6,7,8-tetrahydro-9-oxa-1,3,6-triazabenzocyclohepten-4-yl]-2-fluorophenyl}-3-(2-hydroxy-1,1-dimethylethyl)urea], the IC50 in assay [1] was determined as 1.12 µM. The “PI3Ka IC50” value at PI3Kα (p110α/p85α) is more than 10 µM.

Regarding `CCN1CC(C)(C)Oc2nc(N3CC4CCC(C3)O4)nc(-c3ccc(NC(=O)Nc4ccc(OC)nc4)c(C)c3)c2C1=O` [Example 175, 1-{4-[6-Ethyl-8,8-dimethyl-2-(8-oxa-3-azabicyclo[3.2.1]oct-3-yl)-5-oxo-5,6,7,8-tetrahydro-9-oxa-1,3,6-triazabenzocyclohepten-4-yl]-2-methylphenyl}-3-(6-methoxypyridin-3-yl)urea], the values for the IC50 (in assay [1]; in the assay on U87MG tumour cells) were 0.585 µM and 3.05 µM, respectively. Also, on PI3Kα (p110α/p85α), the “PI3Ka IC50” value is more than 10 µM.

Consider `COCCN1CC(C)(C)Oc2nc(N3CCOC[C@@H]3C)nc(-c3ccc(NC(=O)Nc4cccc(OC(F)F)c4)cc3)c2C1=O` [Example 216, 1-(3-Difluoromethoxyphenyl)-3-{4-[6-(2-methoxyethyl)-8,8-dimethyl-2-((S)-3-methylmorpholin-4-yl)-5-oxo-5,6,7,8-tetrahydro-9-oxa-1,3,6-triazabenzocyclohepten-4-yl]phenyl}urea], for which the IC50 is 0.125 µM in assay [1] and 0.514 µM with U87MG tumour cells. The “PI3Ka IC50” value at PI3Kα (p110α/p85α) was found to be 1.83 µM.

As to `CCN1CC(C)(C)Oc2nc(N3CC4CCC(C3)O4)nc(-c3ccc(OC)c(CO)c3)c2C1=O` [Example 101, 6-Ethyl-4-(3-hydroxymethyl-4-methoxyphenyl)-8,8-dimethyl-2-(8-oxa-3-azabicyclo[3.2.1]oct-3-yl)-7,8-dihydro-6H-9-oxa-1,3,6-triazabenzocyclohepten-5-one], the IC50 in assay [1] was 4.04 µM; in the assay with U87MG tumour cells it was more than 10 µM.

On to `CCNC(=O)Nc1ccc(-c2nc(N3CCOCC3)nc3c2C(=O)N(CC)CCO3)cc1` [Example 97, 1-Ethyl-3-[4-(6-ethyl-2-morpholin-4-yl-5-oxo-5,6,7,8-tetrahydro-9-oxa-1,3,6-triazabenzocyclohepten-4-yl)phenyl]urea], for which the IC50 in assay [1] was 0.8 µM; in the assay on U87MG tumour cells, more than 10 µM. In addition, on PI3Kα (p110α/p85α), the “PI3Ka IC50” value came to 2.159 µM.

Turning to `CCN1CC(C)(C)Oc2nc(N3CC4CCC(C3)O4)nc(-c3ccc(NC(=O)NCC4CCCO4)c(F)c3)c2C1=O` (stereo not drawn) [Example 128, 1-{4-[6-Ethyl-8,8-dimethyl-2-(8-oxa-3-azabicyclo[3.2.1]oct-3-yl)-5-oxo-5,6,7,8-tetrahydro-9-oxa-1,3,6-triazabenzocyclohepten-4-yl]-2-fluorophenyl}-3-(tetrahydrofuran-2-ylmethyl)urea], the IC50 in assay [1] was 3.48 µM; in the assay with U87MG tumour cells it was more than 10 µM. Moreover, the “PI3Ka IC50” value on PI3Kα (p110α/p85α) was more than 10 µM.

Regarding `CCNC(=O)Nc1ccc(-c2nc(N3C[C@@H](C)O[C@@H](C)C3)nc3c2C(=O)N(CC)CC(C)(C)CO3)cc1` [Example 109, 1-{4-[2-((2S,6R)-2,6-Dimethylmorpholin-4-yl)-6-ethyl-8,8-dimethyl-5-oxo-6,7,8,9-tetrahydro-5H-10-oxa-1,3,6-triazabenzocycloocten-4-yl]phenyl}-3-ethylurea], the IC50 in assay [1] was determined as 7.77 µM. Also, the “PI3Ka IC50” value on PI3Kα (p110α/p85α) was 2.046 µM.

As for `CCN1CC(C)(C)Oc2nc(N3CCOCC3)nc(-c3ccc(OC)c(CO)c3)c2C1=O` [Example 100, 6-Ethyl-4-(3-hydroxymethyl-4-methoxyphenyl)-8,8-dimethyl-2-morpholin-4-yl-7,8-dihydro-6H-9-oxa-1,3,6-triazabenzocyclohepten-5-one], the IC50 in assay [1] is 7.29 µM; in the assay with U87MG tumour cells, more than 10 µM. Further, the “PI3Ka IC50” value at PI3Kα (p110α/p85α) was 7.44 µM.

With `CCN1CC(C)(C)Oc2nc(N3CCOCC3)nc(-c3ccc(N)cc3)c2C1=O` [Example 102, 4-(4-Aminophenyl)-6-ethyl-8,8-dimethyl-2-morpholin-4-yl-7,8-dihydro-6H-9-oxa-1,3,6-triazabenzocyclohepten-5-one], the IC50 in assay [1] is 0.927 µM; in the assay with U87MG tumour cells it was 9.83 µM. Also, the “PI3Ka IC50” value at PI3Kα (p110α/p85α) came out at 3.61 µM.

As for `CC1(C)CNC(=O)c2c(nc(N3CCOCC3)nc2-c2ccc(N)nc2)O1` [Example 95, 4-(6-Aminopyridin-3-yl)-8,8-dimethyl-2-morpholin-4-yl-7,8-dihydro-6H-9-oxa-1,3,6-triazabenzocyclohepten-5-one], the IC50 in assay [1] turned out to be 0.624 µM. Also, the “PI3Ka IC50” value on PI3Kα (p110α/p85α) was more than 10 µM.
